Data reported in patent EP4806891A1 (Kangbaida (Sichuan) Biotechnology Co., Ltd., priority 2023, dated 2025).

These compounds were tested against T1, HEK-Blue-hTLR9 cells (Homo sapiens, UniProt Q9NR96) (assay: HEK-Blue-hTLR9 cell inhibition assay). Details: ODN2006 1 µM, 16 h, OD 620 nm, read-out: TLR9 IC50.
T1 construct: expressed in transfected cells; host or cells: HEK-Blue-hTLR9 cells (HEK293-derived reporter line)
T1 sequence (Q9NR96 26-1032): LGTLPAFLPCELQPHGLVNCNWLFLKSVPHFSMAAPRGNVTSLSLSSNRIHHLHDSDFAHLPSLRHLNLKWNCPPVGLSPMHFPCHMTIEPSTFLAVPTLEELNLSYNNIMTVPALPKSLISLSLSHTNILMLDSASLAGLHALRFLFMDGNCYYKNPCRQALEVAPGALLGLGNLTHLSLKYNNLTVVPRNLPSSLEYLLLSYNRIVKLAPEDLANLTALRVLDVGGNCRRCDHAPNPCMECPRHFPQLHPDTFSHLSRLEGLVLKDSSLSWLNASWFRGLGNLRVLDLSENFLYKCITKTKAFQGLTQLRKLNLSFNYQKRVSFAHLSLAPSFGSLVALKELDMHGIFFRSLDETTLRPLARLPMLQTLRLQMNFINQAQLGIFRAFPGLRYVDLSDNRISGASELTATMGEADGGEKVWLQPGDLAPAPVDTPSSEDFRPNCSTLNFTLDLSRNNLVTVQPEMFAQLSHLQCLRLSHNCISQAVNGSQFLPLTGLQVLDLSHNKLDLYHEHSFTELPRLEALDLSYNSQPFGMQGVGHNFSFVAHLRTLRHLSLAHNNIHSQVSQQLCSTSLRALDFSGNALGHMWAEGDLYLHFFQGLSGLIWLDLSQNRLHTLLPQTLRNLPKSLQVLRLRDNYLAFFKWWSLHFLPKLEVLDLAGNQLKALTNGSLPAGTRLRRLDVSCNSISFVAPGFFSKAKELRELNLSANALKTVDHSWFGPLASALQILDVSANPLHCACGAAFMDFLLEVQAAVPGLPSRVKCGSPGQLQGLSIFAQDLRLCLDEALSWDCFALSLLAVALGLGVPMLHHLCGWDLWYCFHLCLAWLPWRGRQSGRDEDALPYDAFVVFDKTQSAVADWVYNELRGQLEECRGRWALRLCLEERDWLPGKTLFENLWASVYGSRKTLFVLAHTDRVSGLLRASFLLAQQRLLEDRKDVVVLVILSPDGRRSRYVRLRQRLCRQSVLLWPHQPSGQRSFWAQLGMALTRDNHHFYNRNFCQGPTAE
Assay type: cell-based
Method in brief: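 Cells were pre-incubated 4 h, then co-treated 16 h at 37 °C with compound (10 doses, 0.5–10000 nM final) plus R848 (0.8 µM for TLR7, 3 µM for TLR8) or ODN2006 (1 µM, TLR9). Reporter OD620 gave inhibition relative to DMSO blank and agonist-only controls; IC50 came from curve fitting.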

IC50 [nM]	SMILES
> 1000	CN1CCC(F)(c2nnc([C@]34CN(c5ccc(C#N)n6nccc56)C[C@@]3(C(F)(F)F)C4)o2)CC1 [Compound 90, 4-((1S,5R)-1-(5-(4-fluoro-1-methylpiperidin-4-yl)-1,3,4-oxadiazol-2-yl)-5-(trifluoromethyl)-3-azabicyclo[3.1.0]hexan-3-yl)pyrazolo[1,5-a]pyridine-7-carbonitrile]
> 10000	CN1CCC(c2nnc([C@]34CN(c5ccc(C#N)c6ncnn56)C[C@@]3(C(F)(F)F)C4)o2)CC1 [Compound 91, 5-((1S,5R)-1-(5-(1-methylpiperidin-4-yl)-1,3,4-oxadiazol-2-yl)-5-(trifluoromethyl)-3-azabicyclo[3.1.0]hexan-3-yl)-[1,2,4]triazolo[1,5-a]pyridine-8-carbonitrile]
> 1000	CN1CCC(Oc2nnc([C@]34CN(c5ccc(C(F)(F)F)c6ncccc56)C[C@@]3(C(F)(F)F)C4)o2)CC1 [Compound 92, 2-((1-methylpiperidin-4-yl)oxy)-5-((1S,5R)-5-(trifluoromethyl)-3-(8-(trifluoromethyl)quinolin-5-yl)-3-azabicyclo[3.1.0]hexan-1-yl)-1,3,4-oxadiazole]
> 10000	CN1CCC(Oc2nnc([C@]34CN(c5ccc(OC(F)(F)F)c6ncccc56)C[C@@]3(C(F)(F)F)C4)o2)CC1 [Compound 93, 2-((1-methylpiperidin-4-yl)oxy)-5-((1S,5R)-5-(trifluoromethyl)-3-(8-(trifluoromethoxy)quinolin-5-yl)-3-azabicyclo[3.1.0]hexan-1-yl)-1,3,4-oxadiazole]
> 1000	CN1CC(Cc2nnc([C@]34CN(c5ccc(C(F)(F)F)c6ncccc56)C[C@@]3(C(F)(F)F)C4)o2)C1 [Compound 95, 2-((1-methylazetidin-3-yl)methyl)-5-((1S,5R)-5-(trifluoromethyl)-3-(8-(trifluoromethyl)quinolin-5-yl)-3-azabicyclo[3.1.0]hexan-1-yl)-1,3,4-oxadiazole]
> 1000	FC(F)(F)Oc1ccc(N2C[C@]3(c4nnc(C5(F)CCNCC5)o4)C[C@]3(C(F)(F)F)C2)c2cccnc12 [Compound 96, 2-(4-fluoropiperidin-4-yl)-5-((1S,5R)-3-(8-(trifluoromethoxy)quinolin-5-yl)-5-(trifluoromethyl)-3-azabicyclo[3.1.0]hexan-1-yl)-1,3,4-oxadiazole]

SMILES	IC50 [nM]
CN1CCC(O)(c2nnc([C@]34CN(c5ccc(C(F)(F)F)c6ncccc56)C[C@@]3(C(F)(F)F)C4)o2)CC1 [Compound 94, 1-methyl-4-(5-((1S,5R)-5-(trifluoromethyl)-3-(8-(trifluoromethyl)quinolin-5-yl)-3-azabicyclo[3.1.0]hexan-1-yl)-1,3,4-oxadiazol-2-yl)piperidin-4-ol]	> 1000
